{"source": "patent EP2296651B1", "about": "“5-HYDROXYMETHYL-OXAZOLIDIN-2-ONE DERIVATIVES FOR TREATING BACTERIAL INTESTINAL DISEASES” (Actelion Pharmaceuticals Ltd., priority 2008, dated 2009)", "key": {"C. difficile ATCC 43596": {"system": "C. difficile ATCC 43596", "test": "Broth microdilution MIC, anaerobic", "type": "cell-based, Clostridium difficile", "settings": "Clostridioides difficile, ATCC43596, 48h at 37°C, read-out: MIC regarding C. difficile ATCC 43596"}, "C. difficile ATCC 9689": {"system": "C. difficile ATCC 9689", "test": "Broth microdilution MIC, anaerobic", "type": "cell-based, Clostridium difficile", "settings": "Clostridioides difficile, ATCC9689, 48h at 37°C, read-out: MIC regarding C. difficile ATCC 9689"}, "C. perfringens DSM 756": {"system": "C. perfringens DSM 756", "test": "microbe, parasite or virus in culture", "type": "cell-based", "settings": "Clostridium perfringens, DSM756, 48 h, read-out: MIC regarding C. perfringens DSM 756"}, "[1]": {"system": "209 diverse clinical isolates of C. difficile", "test": "CLSI agar dilution MIC, clinical isolates", "type": "cell-based, Clostridium difficile", "settings": "Clostridioides difficile, 48 h; 209 clinical isolates of C. difficile; read-out: MIC90"}, "[2]": {"system": "Fusobacterium necrophorum A-1260 DSM 20698", "test": "Agar dilution MIC, anaerobic strains", "type": "cell-based", "settings": "DSM20698, 48 h"}, "[3]": {"system": "Bacteroides ovatus A-991 ATCC 8483", "test": "Agar dilution MIC, anaerobic strains", "type": "cell-based", "settings": "ATCC8483, 48 h"}, "[4]": {"system": "Bacteroides vulgatus A-989 ATCC 8482", "test": "Agar dilution MIC, anaerobic strains", "type": "cell-based", "settings": "Phocaeicola vulgatus, ATCC8482, 48 h"}, "[5]": {"system": "Bacteroides fragilis A-502 T 7403", "test": "Agar dilution MIC, anaerobic strains", "type": "cell-based", "settings": "A502T7403, 48 h"}, "[6]": {"system": "Bacteroides fragilis A-348 T 8673", "test": "Agar dilution MIC, anaerobic strains", "type": "cell-based", "settings": "A348T8673, 48 h"}, "[7]": {"system": "Bacteroides fragilis A-217 B 6306", "test": "Agar dilution MIC, anaerobic strains", "type": "cell-based", "settings": "A217B6306, 48 h"}, "[8]": {"system": "Bacteroides fragilis A-501 B 8039", "test": "Agar dilution MIC, anaerobic strains", "type": "cell-based", "settings": "A501B8039, 48 h"}, "[9]": {"system": "Bacteroides fragilis A-260 T 9865", "test": "Agar dilution MIC, anaerobic strains", "type": "cell-based", "settings": "A260T9865, 48 h"}, "[10]": {"system": "Finegoldia magna A-1254 DSM 20470", "test": "Agar dilution MIC, anaerobic strains", "type": "cell-based"}, "[11]": {"system": "Bifidobacterium adolescentis A-1257 DSM 20083", "test": "Agar dilution MIC, anaerobic strains", "type": "cell-based", "settings": "DSM20083, 48 h"}, "[12]": {"system": "Lactobacillus acidophilus A-1255 DSM 20079", "test": "Agar dilution MIC, anaerobic strains", "type": "cell-based"}, "[13]": {"system": "Lactococcus lactis A-1256 DSM 20069", "test": "Agar dilution MIC, anaerobic strains", "type": "cell-based"}, "[14]": {"system": "toxigenic C difficile strain 10465", "test": "C. difficile hamster model", "type": "in vivo, Golden Syrian hamsters", "description": "Golden Syrian hamsters were given a single injection of clindamycin phosphate (10 mg/kg s.c.), and a day later animals were infected by gavage with 10^5 CFU of toxigenic C difficile strain 10465. A fulminant colitis results in the majority (∼95%) of animals and develops 1 to 2 days after the administration of C. difficile. Untreated, the colitis progresses rapidly and turns into severe colitis, hemorrhagic necrosis of the cecum and death. The compound of Example 1 was administered orally as a suspension at three dosage levels (10 mg/kg, 30 mg/kg and 100 mg/kg; n = 10 per group). Vancomycin (50 mg/kg) was used as a control. Animals were treated once daily for 5 days and afterwards maintain under observation for an additional 21 days.\nThe animals were observed three times daily for morbidity and presence or absence of diarrhoea. The final endpoint of the study was survival. Animals judged to be in a moribund state [extended period of weight loss progressing to an emaciated state, anorexia for 24-48 h, prolonged lethargy (more than 3 days), signs of paralysis, skin erosions or trauma, hunched posture, distended abdomen] were euthanized by a single injection of sodium pentobarbital."}, "S. aureus ATCC 29213": {"system": "S. aureus ATCC 29213", "test": "Broth microdilution MIC, aerobic Gram-positive bacteria", "settings": "Staphylococcus aureus, ATCC29213, 48 h"}, "S. aureus A-798 (MRSA)": {"system": "S. aureus A-798 (MRSA)", "test": "Broth microdilution MIC, aerobic Gram-positive bacteria", "settings": "Staphylococcus aureus, 48 h"}, "E. faecalis H 7460": {"system": "E. faecalis H 7460", "test": "Broth microdilution MIC, aerobic Gram-positive bacteria", "settings": "Enterococcus faecalis, H7460, 48 h"}, "E. faecium ATCC 19434": {"system": "E. faecium ATCC 19434", "test": "Broth microdilution MIC, aerobic Gram-positive bacteria", "settings": "Enterococcus faecium, ATCC19434, 48 h"}, "E. faecium H 9070": {"system": "E. faecium H 9070", "test": "Broth microdilution MIC, aerobic Gram-positive bacteria", "settings": "Enterococcus faecium, H9070, 48 h"}, "E. faecium H 7966": {"system": "E. faecium H 7966", "test": "Broth microdilution MIC, aerobic Gram-positive bacteria", "settings": "Enterococcus faecium, H7966, 48 h"}, "E. faecium H 7937": {"system": "E. faecium H 7937", "test": "Broth microdilution MIC, aerobic Gram-positive bacteria", "settings": "Enterococcus faecium, H7937, 48 h"}, "E. faecium A 962": {"system": "E. faecium A 962", "test": "Broth microdilution MIC, aerobic Gram-positive bacteria", "settings": "Enterococcus faecium, A962, 48 h"}, "E. faecium A 949": {"system": "E. faecium A 949", "test": "Broth microdilution MIC, aerobic Gram-positive bacteria", "settings": "Enterococcus faecium, A949, 48 h"}, "E. faecium L1 (LZD-R)": {"system": "E. faecium L1 (LZD-R)", "test": "Broth microdilution MIC, aerobic Gram-positive bacteria", "settings": "Enterococcus faecium, 48 h"}, "[15]": {"settings": "100 mg/kg orally once daily for 5 days"}}}
{"smiles": "O=C(O)c1cn(C2CC2)c2cc(N3CCC(O)(COc4ccc(N5C[C@H](CO)OC5=O)cc4F)CC3)c(F)cc2c1=O", "note": "[Example 1, 1-cyclopropyl-6-fluoro-7-{4-[2-fluoro-4-((R)-5-hydroxymethyl-2-oxo-oxazolidin-3-yl)-phenoxymethyl]-4-hydroxy-piperidin-1-yl}-4-oxo-1,4-dihydro-quinoline-3-carboxylic acid]", "values": [{"measurement": "MIC", "setting": "C. difficile ATCC 43596", "value": 0.125, "unit": "µg/mL"}, {"measurement": "MIC", "setting": "C. difficile ATCC 9689", "value": 0.125, "unit": "µg/mL"}, {"measurement": "MIC", "setting": "C. perfringens DSM 756", "value": "≤ 0.03", "unit": "µg/mL"}, {"measurement": "MIC90", "setting": "[1]", "value": 0.25, "unit": "µg/mL"}, {"measurement": "MIC", "setting": "[2]", "value": 1, "unit": "µg/mL"}, {"measurement": "MIC", "setting": "[3]", "value": 16, "unit": "µg/mL"}, {"measurement": "MIC", "setting": "[4]", "value": 2, "unit": "µg/mL"}, {"measurement": "MIC", "setting": "[5]", "value": 4, "unit": "µg/mL"}, {"measurement": "MIC", "setting": "[6]", "value": 2, "unit": "µg/mL"}, {"measurement": "MIC", "setting": "[7]", "value": 4, "unit": "µg/mL"}, {"measurement": "MIC", "setting": "[8]", "value": 4, "unit": "µg/mL"}, {"measurement": "MIC", "setting": "[9]", "value": 4, "unit": "µg/mL"}, {"measurement": "MIC", "setting": "[10]; DSM20470, 48 h, Finegoldia magna A-1254, DSM 20470", "value": 0.25, "unit": "µg/mL"}, {"measurement": "less activity against Finegoldia magna A-1254 compared to the compound of Example 5 of WO 2005/058888", "setting": "[10]; versus R1", "value": 4, "unit": "times"}, {"measurement": "MIC", "setting": "[11]", "value": 0.5, "unit": "µg/mL"}, {"measurement": "MIC", "setting": "[12]; DSM20079, 48 h, Lactobacillus acidophilus A-1255, DSM 20079", "value": 0.5, "unit": "µg/mL"}, {"measurement": "less activity against Lactobacillus acidophilus A-1255 compared to the compound of Example 5 of WO 2005/058888", "setting": "[12]; versus R1", "value": 8, "unit": "times"}, {"measurement": "MIC", "setting": "[13]; DSM20069, 48 h, Lactococcus lactis A-1256, DSM 20069", "value": 0.5, "unit": "µg/mL"}, {"measurement": "less activity against Lactococcus lactis A-1256 compared to the compound of Example 5 of WO 2005/058888", "setting": "[13]; versus R1", "value": 8, "unit": "times"}, {"measurement": "survival during the 5 day treatment period", "setting": "[14]; 10 mg/kg orally once daily for 5 days", "value": "all"}, {"measurement": "survival during the 5 day treatment period", "setting": "[14]; 30 mg/kg orally once daily for 5 days", "value": "all"}, {"measurement": "animals survived without relapse, relapse phase of 21 days after treatment", "setting": "[14]; [15]", "value": 100, "unit": "%"}, {"measurement": "survival during the 5 day treatment period", "setting": "[14]; [15]", "value": "all"}, {"measurement": "MIC", "setting": "S. aureus ATCC 29213", "value": 0.25, "unit": "µg/mL"}, {"measurement": "MIC", "setting": "S. aureus A-798 (MRSA)", "value": 0.25, "unit": "µg/mL"}, {"measurement": "MIC", "setting": "E. faecalis H 7460", "value": 1, "unit": "µg/mL"}, {"measurement": "MIC", "setting": "E. faecium ATCC 19434", "value": 0.25, "unit": "µg/mL"}, {"measurement": "MIC", "setting": "E. faecium H 9070", "value": 1, "unit": "µg/mL"}, {"measurement": "MIC", "setting": "E. faecium H 7966", "value": 0.5, "unit": "µg/mL"}, {"measurement": "MIC", "setting": "E. faecium H 7937", "value": 0.25, "unit": "µg/mL"}, {"measurement": "MIC", "setting": "E. faecium A 962", "value": 0.5, "unit": "µg/mL"}, {"measurement": "MIC", "setting": "E. faecium A 949", "value": 1, "unit": "µg/mL"}, {"measurement": "MIC", "setting": "E. faecium L1 (LZD-R)", "value": 2, "unit": "µg/mL"}]}
